# Measured values taken from patent publication US20160067211A1, “PHARMACEUTICAL COMPOSITION” (Eberhard Karls Universitaet Tuebingen Medizinische Fakultaet, priority 2013, published 2016).
# Assays:
# [1] = tested on: prostate cancer cell line PC-3; conditions: PC-3 in vitro; cited from earlier work
# [2] = tested on: histon protein H3 acetylation in BLM melanoma cells; assay: Western blot of acetylated histon H3, BLM; assay type: cell-based, human; conditions: 100 μM, 24 hours, vs. DMSO control
# Method: FIG. 4: 6-PN and 8-PN induce a hyper acetylation in SK-MEL-28 melanoma cells. Western blot analysis of acetylated histon complex H3 in cellular lysates of BLM and SK-MEL-28 cells treated with 100 μM 6-PN or 8-PN for 1, 2, 4, 12 and 24 h, or with 100 μM SAHA (as reference HDACi) for 24 h. Equal protein loading was verified by vinculin staining (lower rows). At 24 hours (BLM) and 2 hours (SK-MEL-28) after the PN treatment a prominent up-regulation of ac-H3 is detectable. The protein expression levels were estimated performing a densitometric analysis.
# The following antibodies were used: Anti-Vinculin and Anti-Actin (1:5000, Sigma-Aldrich), Anti-Acetyl-Histon H3 (1:5000, Millipore, Billerica, USA), Anti-Caspase-3 (1:1000), Anti-AKT, Anti-pAKT, Anti-ERK, Anti-pERK, […], Anti-p70S6 Kinase, and Anti-pS6 protein (1:1000), all from Cell Signaling, Frankfurt, Germany), Anti-LC3 (1:5000, Sigma-Aldrich).
# An incubation of cells with HDACi induces generally a hyperacetylation of histon proteins. Therefore, the acetylation status of the histon protein H3 after treatment with 6-PN or 8-PN was investigated. Corresponding to the HDAC screening results, a direct effect was monitored. […] SAHA was used as control HDACi (at 100 μM, 24 hours treatment).
# [3] = tested on: angiogenesis induced by basic fibroblast growth factor and vascular endothelial growth factor; conditions: induced by bFGF and VEGF, three-dimensional collagen gel in vitro; cited from earlier work
# SK-MEL-28 melanoma cells = assay: FACS cell cycle analysis (PI), SK-MEL-28; assay type: cell-based, human; conditions: SK-MEL-28, 100 μM, 48 hours
# Method: (A) Cell cycle FACS analyses of PI stained BLM and SK-MEL-28 melanoma cells. 100 μM of 8-PN-induced a G2 arrest in both cells. (B) FACS analyses of BLM and SK-MEL-28 melanoma cells treated with 100 μM 6-PN or 8-PN and stained for annexin V/PI; staurosporin was used as control for apoptosis induction and DMSO as vehicle control. […] (C) BLM and SK-MEL-28 melanoma cells were treated with 100 μM of PNs; TSA, SAHA and EMSO were used as controls.
# To further analyze the possibility of apoptosis induction, an extensive apoptosis assay was performed on SK-MEL-28 melanoma cells 4 hours after treatment with 100 μM 6-PN or 8-PN (FIG. 9). […] This was verified by FACS cell cycle analyses to screen for a possible increase of the sub-G1 fraction of cells (apoptotic cells) or for the induction of a G2 arrest (inhibition of proliferation). […] To further differentiate between the induction of apoptosis and/or necrosis an PI/Annexin V staining of SK-MEL-28 and BLM cells was performed 4 hours and 24 hours after the treatment with 6-PN or 8-PN; 10 μM staurosporin (6 hours treatment) was used as positive control for the induction of apoptosis; DMSO treatment was used as vehicle control. The cells were then analyzed by FACS.
# [4] = tested on: human HDAC enzymes from nuclear extract of HeLa cells; assay: HDAC inhibitor screening assay (HeLa nuclear extract); assay type: biochemical; conditions: 6-PN 5 μM, 8-PN 10 μM
# Method: FIG. 2: In silico docking analysis with 6-PN and 8-PN illustrates the inhibitory potential on human-derived HDACs of class I and II. (A) Results of the in silico docking analysis of 6-PN and 8-PN with crystal structures of HDAC2 (class I) and HDAC4 (class II). […] Both molecules are predicted to interact with the zinc ion as well as other residues of the catalytic center. Docking analyses of 6-PN and 8-PN in the individual HDAC binding pockets were performed using GOLD (version 4.1.2) and MOE (version 2009.10). (B) Overall HDAC inhibition in cellular extracts of the human cell line HeLa by increasing concentrations of 6-PN and 8-PN (5 μM, 10 μM, 20 μM, 50 μM and 100 μM). As reference inhibitor 100 μM SAHA was used. Every concentration was tested three times in triplicates. Shown are the mean±SD. (C) Specific fluometric profiling assay using recombinant human HDACs of classes I, II and IV. Specific inhibition values were generated for the treatment with 100 μM 6-PN and 8-PN. TSA was used as reference inhibitor (HDAC1, 2, 3, 6, 10, 11: 10 nM; HDAC4, 8, 9: 1 μM; HDAC5, 7:10 μM). The inhibition vales for every HDAC were yielded by one experiment performed in duplicates Shown are the mean±S.A. […]
structure (smiles),measurement,setting,value
"CC(C)=CCc1c(O)cc(O)c2c1OC(c1ccc(O)cc1)CC2=O (stereo not drawn) [8-PN, 5,7-Dihydroxy-2-(4-hydroxy-phenyl)-8-(3-methyl-but-2-enyl)-chroman-4-one]",antiproliferative effects,[1],antiproliferative effects
same,histon complex H3 acetylation,[2],massive increase
same,angiogenesis,[3],inhibits the angiogenesis
same,sub-G1 fraction (apoptotic cells),SK-MEL-28 melanoma cells,remained unaffected
same,cells in the G2 phase,SK-MEL-28 melanoma cells; DMSO control 20.1%,49.8%
same,HDAC inhibitory effect at low concentration,[4],showed inhibitory effects
